The results in this text go back to patent US20230167073A1 (Teijin Pharma Limited, priority 2020, published 2023).

This experiment has as its target T1, Human TRPC6 (Homo sapiens, UniProt Q9Y210).
T1 construct: expressed in transfected cells
T1 sequence (Q9Y210 1-931): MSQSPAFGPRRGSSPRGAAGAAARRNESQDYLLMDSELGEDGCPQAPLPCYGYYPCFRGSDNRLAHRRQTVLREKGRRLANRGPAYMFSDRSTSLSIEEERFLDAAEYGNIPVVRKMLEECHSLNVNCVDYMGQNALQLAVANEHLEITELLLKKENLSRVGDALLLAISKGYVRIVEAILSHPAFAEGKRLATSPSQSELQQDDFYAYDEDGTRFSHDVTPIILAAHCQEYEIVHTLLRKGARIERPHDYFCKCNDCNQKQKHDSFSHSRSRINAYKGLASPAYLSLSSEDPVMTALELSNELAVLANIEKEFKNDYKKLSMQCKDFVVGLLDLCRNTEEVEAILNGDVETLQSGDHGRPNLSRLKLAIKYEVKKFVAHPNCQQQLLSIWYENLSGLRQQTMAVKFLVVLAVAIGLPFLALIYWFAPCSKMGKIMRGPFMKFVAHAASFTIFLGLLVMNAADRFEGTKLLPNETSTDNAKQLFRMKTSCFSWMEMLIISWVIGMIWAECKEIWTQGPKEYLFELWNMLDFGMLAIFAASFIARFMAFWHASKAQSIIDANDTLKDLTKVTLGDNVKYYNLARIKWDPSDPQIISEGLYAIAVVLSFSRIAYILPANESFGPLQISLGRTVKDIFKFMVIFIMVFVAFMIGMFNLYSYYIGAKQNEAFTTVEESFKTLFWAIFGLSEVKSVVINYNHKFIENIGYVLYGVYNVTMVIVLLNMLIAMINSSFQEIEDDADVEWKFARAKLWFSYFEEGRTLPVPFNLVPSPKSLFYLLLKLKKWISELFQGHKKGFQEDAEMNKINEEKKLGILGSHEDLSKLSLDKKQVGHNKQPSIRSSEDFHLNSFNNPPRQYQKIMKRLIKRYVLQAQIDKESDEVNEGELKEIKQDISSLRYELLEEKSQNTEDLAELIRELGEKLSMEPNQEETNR
As to the kind of experiment: Evaluation of TRPC6 channel inhibitory activity (1), FLIPR Calcium 5 Assay Kit, OAG stimulation (Compound Nos. 1-1293). The class given is cell-based. As to conditions: Human TRPC6 stably-expressing cells, OAG 30 μM, FLIPR Calcium 5 Assay Kit; read-out: Inhibitory activity (pIC50 class) (converted). A digest of the protocol:
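Cells stably expressing human TRPC6, plated 24 h before, were loaded 30 min with Calcium 5 dye plus probenecid in HEPES-HBSS. Compound was added 20 min before OAG (30 μM final) and fluorescence tracked on FLIPR. Inhibition normalised to no-compound and no-compound/no-OAG wells; pIC50 from four-parameter fit, reported as +/++/+++ categories.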

In the case of `CC(C)(N)Cc1ccc(-c2ccc(C#N)cc2Oc2cnnc(N3CCOCC3)c2)cc1` [compound 297, 4-[4-(2-amino-2-methylpropyl)phenyl]-3-(6-morpholin-4-ylpyridazin-4-yl)oxybenzonitrile], the IC50 was 10 to 1000 nM.

For the compound `Cc1nc(Oc2cc(C#N)ccc2-n2cc(CN)cn2)cc(N2CCOCC2)n1` [compound 298, 4-[4-(aminomethyl)pyrazol-1-yl]-3-(2-methyl-6-morpholin-4-ylpyrimidin-4-yl)oxybenzonitrile], the IC50 was 10 to 1000 nM.

With `Cc1cc(Oc2cc(C#N)ccc2-c2ccc(CCN)cn2)n(C)n1` [compound 299, 4-[5-(2-aminoethyl)pyridin-2-yl]-3-(2,5-dimethylpyrazol-3-yl)oxybenzonitrile], the IC50 is less than 10 nM.

In the case of `Cn1nccc1Oc1cc(C#N)ccc1-c1ccc(CCN)cn1` [compound 300, 4-[5-(2-aminoethyl)pyridin-2-yl]-3-(2-methylpyrazol-3-yl)oxybenzonitrile], the IC50 is 10 to 1000 nM.

Consider `Cn1nc(-c2ccccc2)cc1Oc1cc(C#N)ccc1-c1ccc(C(O)C(C)(C)N)cn1` (stereo not drawn) [compound 301, 4-[5-(2-amino-1-hydroxy-2-methylpropyl)pyridin-2-yl]-3-(2-methyl-5-phenylpyrazol-3-yl)oxybenzonitrile], for which the IC50 is less than 10 nM.

In the case of `Cc1nc(Oc2cc(C#N)ccc2-n2cc(C(O)C(C)(C)N)cn2)cc(N2CCOCC2)n1` (stereo not drawn) [compound 302, 4-[4-(2-amino-1-hydroxy-2-methylpropyl)pyrazol-1-yl]-3-(2-methyl-6-morpholin-4-ylpyrimidin-4-yl)oxybenzonitrile], the IC50 is 10 to 1000 nM.

On to `Cc1cc(Oc2cc(C#N)ccc2-c2ccc(C(O)C(C)(C)N)cn2)cc(N2CCOCC2)n1` (stereo not drawn) [compound 303, 4-[5-(2-amino-1-hydroxy-2-methylpropyl)pyridin-2-yl]-3-(2-methyl-6-morpholin-4-ylpyridin-4-yl)oxybenzonitrile], for which the IC50 is 10 to 1000 nM.

For the compound `Cc1cc(Oc2cc(C#N)ccc2-n2cc(CCN)cn2)n(C)n1` [compound 304, 4-[4-(2-aminoethyl)pyrazol-1-yl]-3-(2,5-dimethylpyrazol-3-yl)oxybenzonitrile], the IC50 was more than 1000 nM.

In the case of `Cc1cc(Oc2cc(C#N)ccc2-c2ncc(CCN)cn2)n(C)n1` [compound 305, 4-[5-(2-aminoethyl)pyrimidin-2-yl]-3-(2,5-dimethylpyrazol-3-yl)oxybenzonitrile], the IC50 was 10 to 1000 nM.

For the compound `N#Cc1ccc(-c2ccc(CCN)cc2)c(Oc2cc(-c3ccccc3)no2)c1` [compound 306, 4-[4-(2-aminoethyl)phenyl]-3-[(3-phenyl-1,2-oxazol-5-yl)oxy]benzonitrile], the IC50 was less than 10 nM.

Consider `Cc1cc(Oc2cc(C#N)ccc2-c2ccc(C(F)(F)CN)cn2)cc(N2CCOCC2)n1` [compound 307, 4-[5-(2-amino-1,1-difluoroethyl)pyridin-2-yl]-3-(2-methyl-6-morpholin-4-ylpyridin-4-yl)oxybenzonitrile], for which the IC50 was 10 to 1000 nM.

Consider `Cn1nc(-c2ccccc2)cc1Oc1cc(C#N)ccc1-c1ccc(C(F)(F)CN)cn1` [compound 308, 4-[5-(2-amino-1,1-difluoroethyl)pyridin-2-yl]-3-(2-methyl-5-phenylpyrazol-3-yl)oxybenzonitrile], for which the IC50 was 10 to 1000 nM.

As to `CCOC(=O)c1cc(Oc2cc(C#N)ccc2-c2ccc(CCN)cn2)n(C)n1` [compound 309, ethyl 5-[2-[5-(2-aminoethyl)pyridin-2-yl]-5-cyanophenoxy]-1-methylpyrazole-3-carboxylate], the IC50 was 10 to 1000 nM.

Turning to `Cn1nc(-c2ccccc2)cc1Oc1cc(C#N)ccc1-c1ncc(CN)cn1` [compound 310, 4-[5-(aminomethyl)pyrimidin-2-yl]-3-(2-methyl-5-phenylpyrazol-3-yl)oxybenzonitrile], the IC50 is less than 10 nM.

`Cn1nccc1Oc1cc(C#N)ccc1-c1ncc(CCN)cn1` [compound 311, 4-[5-(2-aminoethyl)pyrimidin-2-yl]-3-(2-methylpyrazol-3-yl)oxybenzonitrile]: the IC50 is more than 1000 nM.

For `Cn1nc(-c2ccccc2)cc1Oc1cc(C#N)ccc1-c1ccc(CCN)nn1` [compound 312, 4-[6-(2-aminoethyl)pyridazin-3-yl]-3-(2-methyl-5-phenylpyrazol-3-yl)oxybenzonitrile], the IC50 is less than 10 nM.

Regarding `Cn1nc(-c2ccccc2)cc1Oc1cc(C#N)ccc1-c1cnc(CCN)cn1` [compound 313, 4-[5-(2-aminoethyl)pyrazin-2-yl]-3-(2-methyl-5-phenylpyrazol-3-yl)oxybenzonitrile], the IC50 is less than 10 nM.

As to `Cn1nc(-c2ccccc2)cc1Oc1cc(C#N)ccc1-c1cnc(C(O)CN)cn1` (stereo not drawn) [compound 314, 4-[5-(2-amino-1-hydroxyethyl)pyrazin-2-yl]-3-(2-methyl-5-phenylpyrazol-3-yl)oxybenzonitrile], the IC50 was less than 10 nM.

Turning to `Cc1cc(Oc2cc(C#N)ccc2-c2ncc(CCN)cn2)cc(C2CC2)n1` [compound 315, 4-[5-(2-aminoethyl)pyrimidin-2-yl]-3-(2-cyclopropyl-6-methylpyridin-4-yl)oxybenzonitrile], the IC50 is less than 10 nM.

Turning to `Cn1nc(C(=O)O)cc1Oc1cc(C#N)ccc1-c1ccc(CCN)cn1` [compound 316, 5-[2-[5-(2-aminoethyl)pyridin-2-yl]-5-cyanophenoxy]-1-methylpyrazole-3-carboxylic acid], the IC50 is more than 1000 nM.

As to `Cn1nc(C2CC2)cc1Oc1cc(C#N)ccc1-c1ncc(CCN)cn1` [compound 317, 4-[5-(2-aminoethyl)pyrimidin-2-yl]-3-(5-cyclopropyl-2-methylpyrazol-3-yl)oxybenzonitrile], the IC50 is less than 10 nM.

On to `CCCCc1cc(Oc2cc(C#N)ccc2-c2ccc(C(O)CN)cn2)n(C)n1` (stereo not drawn) [compound 318, 4-[5-(2-amino-1-hydroxyethyl)pyridin-2-yl]-3-(5-butyl-2-methylpyrazol-3-yl)oxybenzonitrile], for which the IC50 is less than 10 nM.

With `CCCCc1cc(Oc2cc(C#N)ccc2-c2ncc(CCN)cn2)n(C)n1` [compound 319, 4-[5-(2-aminoethyl)pyrimidin-2-yl]-3-(5-butyl-2-methylpyrazol-3-yl)oxybenzonitrile], the IC50 is less than 10 nM.

As to `COc1ccccc1-c1cc(Oc2cc(C#N)ccc2-c2ccc(C(O)CN)cn2)n(C)n1` (stereo not drawn) [compound 320, 4-[5-(2-amino-1-hydroxyethyl)pyridin-2-yl]-3-[5-(2-methoxyphenyl)-2-methylpyrazol-3-yl]oxybenzonitrile], the IC50 is less than 10 nM.

`Cn1nc(-c2ccccc2O)cc1Oc1cc(C#N)ccc1-c1ccc(C(O)CN)cn1` (stereo not drawn) [compound 321, 4-[5-(2-amino-1-hydroxyethyl)pyridin-2-yl]-3-[5-(2-hydroxyphenyl)-2-methylpyrazol-3-yl]oxybenzonitrile]: the IC50 was less than 10 nM.

Regarding `Cn1nc(-c2ccccc2OCc2ccccc2)cc1Oc1cc(C#N)ccc1-c1ccc(C(O)CN)cn1` (stereo not drawn) [compound 322, 4-[5-(2-amino-1-hydroxyethyl)pyridin-2-yl]-3-[2-methyl-5-(2-phenylmethoxyphenyl)pyrazol-3-yl]oxybenzonitrile], the IC50 is 10 to 1000 nM.

Take `Cc1cc(Oc2cc(C#N)ccc2-c2ccc(CN)cn2)n(C)n1` [compound 323, 4-[5-(aminomethyl)pyridin-2-yl]-3-(2,5-dimethylpyrazol-3-yl)oxybenzonitrile]: the IC50 is 10 to 1000 nM.
